Measurements as given in patent US5587374A, “10(1-hydroxyethyl)-11-oxo-1-azatricyclo/7.2.0.0.^3.8/ undec-2-ene-2-carboxylic acid esters and a process for preparing thereof” (Glaxo SpA, priority 1990, dated 1996).

Tests used:
[1] = system: E. Coli; experiment: protection tests using mice, orally administered compounds (E. Coli); format: in vivo, mice infected with E. Coli; conditions: Escherichia coli, oral, protection test
[2] = system: Staph. aureus; experiment: protection tests using mice, orally administered compounds (Staph. aureus); conditions: Staphylococcus aureus, in Mus musculus, po, read-out: ED50 Staph. aureus
[3] = oral administration to mice, adverse effects; format: in vivo; conditions: orally administered, doses up to 1000 mg/kg
Excerpt: The compounds of the invention are also essentially non-toxic at therapeutically useful dose levels.

Row | SMILES | ED50 [1] [mg/kg] | ED50 [2] [mg/kg] | adverse effects [3]
1 | CO[C@H]1CCC[C@H]2C1=C(C(=O)OC(C)OC(=O)OC(C)C)N1C(=O)[C@H]([C@@H](C)O)[C@@H]21 (stereo partly drawn) [Example 3, 1-(Isopropyloxycarbonyloxy)ethyl (4S,8S,9R,10S,12R)-4-methoxy-10-(1'-hydroxyethyl)-11-oxo-1-azatricyclo-[7.2.0.0^3,8]undec-2-ene-2-carboxylate] | < 1 | < 1 | –
2 | CO[C@H]1CCC[C@H]2C1=C(C(=O)OCOC(=O)C(C)(C)C)N1C(=O)[C@H]([C@@H](C)O)[C@@H]21 [Example 10, [(1,1-Dimethyl-ethyl)carbonyloxy]methyl (4S,8S, 9R, 10S, 12R) -4-methoxy-10-(1'-hydroxyethyl)-11-oxo-1-azatricyclo[7.2.0.0^3,8]undec-2-ene-2-carboxylate] | < 1 | < 1 | –
3 | CO[C@H]1CCC[C@H]2C1=C(C(=O)OC(C)OC(=O)OC1CCCCC1)N1C(=O)[C@H]([C@@H](C)O)[C@@H]21 (stereo partly drawn) [Example 1, 1-(Cyclohexyloxycarbonyloxy)ethyl (4S,8S,9R,10S,12R)-4-methoxy-10-(1'-hydroxyethyl)-11-oxo-1-azatricyclo-[7.2.0.0^3,8]undec-2-ene-2-carboxylate] | < 1 | < 1 | no adverse effects were observed
4 | CO/N=C(\C(=O)N[C@@H]1C(=O)N2C(C(=O)OC(C)OC(C)=O)=C(COC(N)=O)CS[C@H]12)c1ccco1 (stereo partly drawn) [Cefuroxime axetil, cefuroxime axetil, reference compound] | 26 | 6 | –
